Assay results taken from a melting point compilation (Tetko et al.; mined from patent text by program, amines drawn as free bases though some values may be those of a salt).

SMILES	melting point [°C]
CC(C)(C)OC(=O)N1CCC2(CC1)NC(=O)N(CC(O)CO)C2=O (centres undefined)	167 to 170
CCCNNC(=O)c1cnc(N(CC)Cc2cc(Br)ccc2OCc2ccccc2)s1	163
COc1nc(CC(=O)O)ccc1NC(=O)Nc1ccccc1Br	195 to 197
COc1ccc(CN2CCc3ncccc3C2)cc1OC	76 to 77
NC(=O)Oc1ccc2c(c1)[nH]c(=O)c1c3ccc(OC(N)=O)cc3oc21	215 to 220
CCCc1c(C)c(NC(=O)CC(C)(C)C)c(C)c2c1SCC2c1ccc(C(C)C)cc1 (centres undefined)	159 to 160
O=[N+]([O-])c1c(-c2ccc(Cl)cc2)[nH]c(C(F)(F)F)c1-c1csc(Br)c1	174 to 176
Clc1nc(Cl)nc(N2CC3CCC(CC3)C2)n1	153 to 154
CC(C)(C)c1cc(SC(Sc2cc(C(C)(C)C)c(O)c(C(C)(C)C)c2)C2CC=CCC2)cc(C(C)(C)C)c1O (centres undefined)	122 to 125
N#Cc1cc(NC(=O)c2cc3ccccc3o2)ccc1N1CCC(CCO)CC1	214
CCc1nn(C2CCCC2)c2cc(C(=O)NCC(=O)O)ccc12	182 to 184
C#CCOc1ccc(C(=O)OC)c(O)c1	142
CN(C)Cc1nc2cccnc2[nH]1	123 to 125
Oc1c2c(nn1-c1cc(C(F)(F)F)ccn1)CCc1ccccc1-2	161 to 162
CS(=O)(=O)c1ccc(-n2cc(C(F)(F)F)nc2-c2ccsc2)cc1	194 to 197
CCc1nc(CN(C)C(=O)N[C@H](C(=O)N[C@@H](Cc2ccccc2)C[C@H](O)[C@H](Cc2ccccc2)NC(=O)OCc2cncs2)C(C)C)cs1	70 to 71
CN[C@@H](CO)Cc1ccccc1	69
CSC(=C[N+](=O)[O-])NCCSCc1ncccc1Cl	80 to 82.5
N#Cc1nc(Cl)c(Cl)[nH]1	187 to 189
CC(C#Cc1ccc(C=Cc2ccc(F)cc2)o1)N(O)C(N)=O (centres undefined)	177
Cc1ccc(C(=O)n2c3c(c4ccccc42)C(C(=O)O)CCC3)cc1 (centres undefined)	181 to 183
CON(C)C(=O)c1cc2sc(C)c(N(C)S(=O)(=O)c3cccs3)c2[nH]1	187
COc1ccc(C2(C#Cc3cccc(-c4nnc(C)o4)c3)CCCC(=O)C2)cc1OC1CCCC1 (centres undefined)	117 to 119
CCNC(=NS(=O)(=O)c1ccc(N)cc1)N1CC2(C=N1)CCCC2	141 to 142
Cn1c(=O)c(=O)[nH]c2ccccc21	277 to 286
O=C1C=C/C(=C/c2cccc(C(F)(F)F)c2)O1	69 to 71

SMILES	melting point [°C]
Cc1cc2c(cc1C)N(C)C(=O)C(CC(=O)O)C2c1ccccc1Cl (centres undefined)	210 to 215
CCN(CC)c1ccc(C=C2CCCC(=Cc3ccc(N(CC)CC)cc3)C2=O)cc1	167
CC(=O)Nc1ccc(CSc2nc3cnccc3[nH]2)cc1	231 to 234
FC(F)(F)c1ccc(-n2nc(N3CCN(CC4CC4)CC3)c3ccccc32)cc1	98 to 100
CC1=C(C(=O)OCCN(C)Cc2ccccc2)C(c2cccc3ncc(-c4ccc(C)cc4)cc23)C2=C(COC2=O)N1 (centres undefined)	173 to 175
COc1ccc(OC)c(Cc2cc(C)cc(OC)c2C(=O)O)c1	172 to 174
COC(=O)CCCCCCCCCCCCCCCCCCCS(=O)(=O)c1ccc(C)cc1	72.5 to 73.5
CCON=C(C(N)=O)C(=O)OC	68 to 71
CCc1ccc2c(c1)C1CN(CCCC(=O)c3ccc(F)cc3)CCC1N2 (centres undefined)	192 to 195
Clc1nc(C(Cl)(Cl)Cl)nc2ccc(I)cc12	154 to 155
O=C(NNc1ccc([N+](=O)[O-])cc1)c1ccccc1	194 to 195
CCOC(=O)c1cc(OC(C)=O)c(OC(C)=O)c(OC(C)=O)c1	76 to 78
CCOC(=O)CC(NC(=O)c1cccc(NC(=O)c2csc(NC(=N)N)n2)c1)c1ccccc1 (racemic)	117
COc1cc(OCc2ccncc2)ccc1/C=C/c1cc(/C=C/c2ccc3[nH]ccc3c2)n[nH]1	133 to 141
Cn1nc(-c2cccs2)n(C)c1=O	108 to 110
O=C(O[C@H]1[C@H](OC(=O)c2ccccc2)[C@@H](CO)O[C@@H]1CO)c1ccccc1	120 to 122
CCOC(=O)c1cc2c(C)c(-c3ccc(Cl)cc3)c(=O)oc2nc1C(=O)OCC	179 to 181
COc1ccc2[nH]cc(-c3cc4c(C(N)=O)ccnc4[nH]3)c2c1	> 320
CCC(=O)C(CCCOc1ccc2c(c1)OCO2)C(=O)CC	68
CSc1ncc2cc(C)c(=O)[nH]c2n1	243 to 245
Cc1ccc(S(=O)(=O)Nc2nc(-c3ccc(Cl)c(Cl)c3)cs2)cc1	205 to 206
CC1CC(=O)NN=C1c1ccc2c(c1)SCC(=O)N2C (centres undefined)	193 to 194
N#Cc1ccc(OCCCCOc2cccc(-c3cc4ccc(C#N)cc4o3)c2)cc1	129 to 130
CCOC(=O)C1CNc2ccc(C)cc2O1 (centres undefined)	90 to 92
OC(CCCc1ccc(Cl)cc1)(Cc1ccc(Cl)cc1)c1ccc(OCc2ccc3ccccc3n2)cc1 (centres undefined)	123 to 124
CCCCCc1ccc(CCc2ccc(-c3ccc(Cl)c(F)c3)cc2)cc1	153

SMILES	melting point [°C]
CC(=O)Nc1nc(CCc2ccc(N)cc2)cs1	102 to 104
Cn1nnc2c(N3CCNCC3)ncnc21	95 to 96
COC(=O)C1=CN(CCCc2ccccc2)C=C(C(=O)OC)C1c1ccc(OC)c(OC)c1	107 to 113
CCCCc1nc2c(N)nc3cccnc3c2n1CCCCNC(=O)OC(C)(C)C	148 to 150
Cn1c(CN2CC=C(/C=C/c3ccccc3)CC2)nc2ccccc21	188 to 190
CCCc1c(OCCCOc2ccc(C(C)=O)c(OCCCC(=O)OCC)c2CCC)ccc(C(C)=O)c1O	77 to 79
O=C(O)CCCCCCCn1nc(-c2ccccc2)c(-c2ccccc2)nc1=O	111 to 113
CCC12CCC3c4ccc(OC)cc4CCC3C1CC=C2OC(C)=O (centres undefined)	105 to 106
OC1=CC(=NNc2ccc(F)cc2)CCC1	175 to 176
CSC1NC(N)=CC(=O)N1C (centres undefined)	255
Cc1cc([N+](=O)[O-])ccc1S(=O)(=O)n1c(Br)nc(Br)c1C	187 to 189
CC(CNc1c(C(=O)O)cccc1[N+](=O)[O-])NCc1ccccc1 (centres undefined)	227
O=Cc1ccc(O)c(CCl)c1	123 to 124
OCCC1(CCO)CCN(Cc2ccccc2)CC1	75 to 78
COc1ccc(S(=O)c2ccccc2)cc1N (centres undefined)	113 to 115
O=C1CC(c2ccc(-c3ccc(Br)cc3)cc2)Cc2ccccc21 (centres undefined)	156 to 158
COc1ccc(N2CCN(c3c(C)c(C)c4c(c3C)C(N3CCCCC3)C(C)(C)O4)CC2)cc1 (centres undefined)	146 to 148
O=C(O)c1ccccc1N1CCN(c2cccc(C(F)(F)F)c2)C1=O	197 to 198
CS(=O)(=O)c1nccc(-c2ccccc2)n1	136 to 137
CCC(C)(CCCCCCC(C)(CC)C(=O)O)C(=O)O (centres undefined)	117 to 118
O=C(O)CCCCO/N=C(/c1cccnc1)c1cccc(C(F)(F)F)c1	70.3
COC(=O)C1=CC(NC(=O)OC(C)(C)C)CO1 (centres undefined)	94 to 96
C#CCOc1ccc2ccccc2c1COC(=O)C1CC1	68 to 73
CCC(C)(C)c1ccc(OCCCNC(=O)c2cc([N+](=O)[O-])c3ccccc3c2O)c(C(C)(C)CC)c1	209 to 210
CCOC(=O)C1=C(C)NC(=O)N(C(=O)OCC)C1c1ccccc1C(F)(F)F (centres undefined)	161 to 163
CCOC(=O)C(CO)C(C)c1cccnc1 (centres undefined)	128 to 131

SMILES	melting point [°C]
COC(=O)C(C)=CNC(=O)Nc1cc(C(=O)OC(C)C)c(Cl)cc1F	189 to 190
COC(=O)C(C)(C)OCC#Cc1cc(Cl)ccc1NS(=O)(=O)c1ccc2nc(NC(C)=O)sc2c1	80
CC(C)Oc1ccccc1-c1ncc(C#N)c(=O)[nH]1	182 to 184
CCN1C(=O)CC[C@@H]2c3ccc(Cl)cc3CC[C@H]21	108 to 110
CS(=O)(=O)c1ccc(-c2cnn(-c3cc(F)cc(F)c3)c(=O)c2Oc2ccc(F)cc2)cc1	209 to 211
OCC1OC(n2cnc3c(NN4CCOCC4)nc(Cl)nc32)C(O)C1O (centres undefined)	160 to 161
CN1CCc2cc(S(=O)(=O)Nc3cnc4ccc(Cl)cc4n3)ccc21	213 to 214
c1cnc2c(c1)NCC2	63
COc1ccc2ccccc2c1-c1c(C)c2c(c(C)c1P(c1ccccc1)c1ccccc1)CCC2	166
CCCCn1c(CCC)ccc1Cc1cccc(NC(N)=O)c1	85 to 89
CC1(C)Oc2ccc(C#N)cc2[C@@H](N2CCCC2=NC#N)[C@@H]1O (relative stereo)	246 to 247
O=C1N(Cc2ccc(C(F)(F)F)o2)c2ccccc2C12COc1cc3c(nc12)OCO3 (centres undefined)	175 to 177
CCOC(=O)c1nc2scc(CNC(=O)c3ccccc3)c2c(=O)[nH]1	204
NC(=O)c1c(-c2cccc(F)c2)c(Br)n2c1CNCC2	216 to 218
CCOC(=O)c1ccc(NC(=S)NCCn2c(C)ccc2C)cc1	155 to 156
CN1CCCN(c2ccc3nc4c(n3n2)CCCC4)CC1	106 to 107
Cc1ccncc1-c1cccc(OC2SCC(O)C(O)C2O)c1 (centres undefined)	143
O=C(OC(c1ccccc1)c1ccccc1)C1=CCC2CC(=O)C12 (centres undefined)	115 to 116
CCSc1ccc2cc(C(C)=O)ccc2c1	69
CNC(=O)c1cccnc1N	140 to 142
COc1ccc(-c2coc(C#N)cc2=O)cc1	165 to 167
Nc1ccc(-c2nc(C(=O)Nc3nccs3)c(-c3ccc(C(F)(F)F)cc3)[nH]2)cc1	175 to 177
N#Cc1[nH]c(-c2ccc(Cl)cc2)c(Br)c1-c1ccc(Cl)cc1	98 to 100
C=C(C)CN1CCN(CC(=O)N2c3ccccc3C(=O)Nc3cccnc32)CC1	205 to 207
CC12CCC(O)CC1=CC(O)C1C2CCC2(C)C(O)C(O)CC12 (centres undefined)	217 to 221
CN(C)CCNC(=O)c1cc(Cl)c(N)cc1O	163 to 165
